{
  "source": "patent US20120258171A1",
  "about": "“COMPOSITION COMPRISING FESOTERODINE AND FIBER” (ratiopharm GmbH, priority 2009, published 2012)",
  "origin": "cited, not measured here",
  "key": {"[1]": {"conditions": "general statement on the active agent"}, "overactive bladder": {"system": "overactive bladder", "conditions": "both Phase III studies, versus placebo"}},
  "data": [
    {"smiles": "CC(C)C(=O)Oc1ccc(CO)cc1[C@H](CCN(C(C)C)C(C)C)c1ccccc1", "note": "[Fesoterodine, 2-[(1R)-3-(di-isopropylamine)-1-phenylpropyl]-4-(hydroxymethyl)phenyl-isobutyrate]", "values": [
      {"measurement": "stability against hydrolysis", "setting": "[1]", "value": "not particularly stable against hydrolysis"},
      {"measurement": "improvement of clinically relevant end points (urge incontinence events/24 h, frequency of micturition, mean micturition volume)", "setting": "overactive bladder", "value": "statistically significant improvements over a placebo"}
    ]}
  ]
}
